Here are results for 13 molecules from patent US12662676B2, “Aptamer nucleic acid molecule, and complex and application thereof” (EAST CHINA UNIVERSITY OF SCIENCE AND TECHNOLOGY, priority 2019, dated 2026).

The chains are these.
B1: F30-Broccoli: reported monomeric Broccoli aptamer in F30 scaffold, SEQ ID NO: 4, control (nucleic acid)
chain: UUGCCAUGUGUAUGUGGGUUCGCCCACAUACUCUGAUGAUCCAGACGGUCGGGUCCAGAUAUUCGUAUCUGUCGAGUAGAGUGUGGGCUGGAUCAUUCAUGGCAA
modifications: listed as RNA, further chemistry not given here
B2: TagBFP-4Pepper: TagBFP mRNA fused with 4Pepper-7, SEQ ID No: 27 (nucleic acid)
chain: AUGAGCGAGCUGAUUAAGGAGAACAUGCACAUGAAGCUGUACAUGGAGGGCACCGUGGACAACCAUCACUUCAAGUGCACAUCCGAGGGCGAAGGCAAGCCCUACGAGGGCACCCAGACCAUGAGAAUCAAGGUGGUCGAGGGCGGCCCUCUCCCCUUCGCCUUCGACAUCCUGGCUACUAGCUUCCUCUACGGCAGCAAGACCUUCAUCAACCACACCCAGGGCAUCCCCGACUUCUUCAAGCAGUCCUUCCCUGAGGGCUUCACAUGGGAGAGAGUCACCACAUACGAAGACGGGGGCGUGCUGACCGCUACCCAGGACACCAGCCUCCAGGACGGCUGCCUCAUCUACAACGUCAAGAUCAGAGGGGUGAACUUCACAUCCAACGGCCCUGUGAUGCAGAAGAAAACACUCGGCUGGGAGGCCUUCACCGAGACGCUGUACCCCGCUGACGGCGGCCUGGAAGGCAGAAACGACAUGGCCCUGAAGCUCGUGGGCGGGAGCCAUCUGAUCGCAAACAUCAAGACCACAUAUAGAUCCAAGAAACCCGCUAAGAACCUCAAGAUGCCUGGCGUCUACUAUGUGGACUACAGACUGGAAAGAAUCAAGGAGGCCAACAACGAGACCUACGUCGAGCAGCACGAGGUGGCAGUGGCCAGAUACUGCGACCUCCCUAGCAAACUGGGGCACAAGCUCAAUUAACACUCGCUAGAGCAUGGUUGGUACCGUAGUCAAGCUUCCCACGGAGGAUCCCCAAUCGUGGCGUGUCGGCCUCUCCCAAUCGUGGCGUGUCGGCCUCUCCCAAUCGUGGCGUGUCGGCCUCUCCCAAUCGUGGCGUGUCGGCCUCUCUUCGGAGAGGCACUGGCGCCGGAGAGGCACUGGCGCCGGAGAGGCACUGGCGCCGGAGAGGCACUGGCGCCGGGAUCCUCCGUGGG

One data set in a line: Fluorescence activation of III-3 fluorophore by Pepper aptamers and mutants. The data set is classed as biochemical. To be noted: Activation of III-3 by Pepper mutants with single mutation; 1 μM III-3 with 5 μM RNA. On the procedure:
Preparation of Pepper or Pepper mutant aptamer according to the commonly used experimental method (1). 5 μM aptamer and 1 μM fluorophore were incubated in the detection buffer (40 mM HEPES, pH 7.4, 125 mM KCl, 5 mM MgCl2, 5% DMSO). The maximal excitation and emission peaks of the aptamer-fluorophore complexes were determined using a Synergy Neo2 multifunctional microplate reader. The fluorescence intensities of the aptamer-fluorophore complexes at the maximal excitation and emission peaks were determined using a Synergy Neo2 multifunctional microplate reader. The control sample (1 μM fluorophore without aptamer) was also measured under the same conditions. Then the ratios of fluorescence intensity were calculated. For example, the fluorescence maximal excitation and emission peaks of the complex of 5 μM F30-Pepper-2 and 1 μM III-3 fluorophore are 485 nm and 530 nm, respectively. The fluorescence intensity of the complex at 485±10 nm excitation and 530 nm±10 nm emission was 36,000, the fluorescence intensity of the control sample (1 μM III-3 fluorophore only) under the same detection conditions was 10. Thus, the activation ratio of F30-Pepper-2 aptamer on III-3 fluorophore was 3,600-fold.
In order to detect the fluorescence activation of III-3 fluorophore by different Pepper mutant, the Pepper-1 sequence in F30-Pepper-1 was mutated according to Table 1. […] 1 μM III-3 was incubated with […] RNA and their fluorescence activation folds were determined according to the commonly used experimental method (5). […] In summary, many Pepper mutants containing single and multiple mutants still retain the ability to activate the fluorescence of III-3 fluorophore.
In order to detect the activation of III-3 by modified Pepper, base-modified Pepper-3 was synthesized (SEQ ID NO: 6, the underlined nucleotides in […] GGCC contain deoxyribonucleotide bases) and Pepper-4 (SEQ ID NO: 7, the underlined nucleotides in […] GGGCC contain 2′-F modification) (synthesized by Shanghai GenePharma Co., Ltd), which contain deoxyribonucleotides replacement (shaded bases in FIG. 5A) or 2′-F modification (shaded bases in FIG. 5B) in the stem-loop region of Pepper. Detection of the fluorescence activation of III-3 fluorophore by these modified Peppers was carried out according to the commonly used experimental method (5).
Regarding “G11U: F30-Pepper-1 mutant aptamer (NCCAAUCGUGUCGUGUCGNNNACUGGCGCCGN; RNA, backbone, methylation of C and the base at N not given here; Pepper aptamer mutant embedded in F30 scaffold) [Compound G11U]”, the Activation folds came out at 1512 folds.

Take “G13C: F30-Pepper-1 mutant aptamer (NCCAAUCGUGGCCUGUCGNNNACUGGCGCCGN; RNA, backbone, methylation of C and the base at N not given here; Pepper aptamer mutant embedded in F30 scaffold) [Compound G13C]”: the Activation folds is 1758 folds.

Take “G18C: F30-Pepper-1 mutant aptamer (NCCAAUCGUGGCGUGUCCNNNACUGGCGCCGN; RNA, backbone, methylation of C and the base at N not given here; Pepper aptamer mutant embedded in F30 scaffold) [Compound G18C]”: the Activation folds is listed as 1028 folds.

“G18U: F30-Pepper-1 mutant aptamer (NCCAAUCGUGGCGUGUCUNNNACUGGCGCCGN; RNA, backbone, methylation of C and the base at N not given here; Pepper aptamer mutant embedded in F30 scaffold) [Compound G18U]”: the Activation folds is 1024 folds.

Take “G28U: F30-Pepper-1 mutant aptamer (NCCAAUCGUGGCGUGUCGNNNACUGGCUCCGN; RNA, backbone and the base at N not given here; Pepper variant inserted in F30 scaffold RNA) [Compound G28U]”: the Activation folds came out at 873 folds.

As for “U6A: F30-Pepper-1 mutant aptamer (NCCAAACGUGGCGUGUCGNNNACUGGCGCCGN; RNA, backbone and the base at N not given here; Pepper variant inserted in F30 scaffold RNA) [Compound U6A]”, the Activation folds was determined as 1872 folds.

As for “U6C: F30-Pepper-1 mutant aptamer (NCCAACCGUGGCGUGUCGNNNACUGGCGCCGN; RNA, backbone and the base at N not given here; Pepper variant inserted in F30 scaffold RNA) [Compound U6C]”, the Activation folds is reported as 2088 folds.

As for “U9A: F30-Pepper-1 mutant aptamer (NCCAAUCGAGGCGUGUCGNNNACUGGCGCCGN; RNA, backbone and the base at N not given here; Pepper variant inserted in F30 scaffold RNA) [Compound U9A]”, the Activation folds was 2124 folds.

For “U14A: F30-Pepper-1 mutant aptamer (NCCAAUCGUGGCGAGUCGNNNACUGGCGCCGN; RNA, backbone and the base at N not given here; Pepper variant inserted in F30 scaffold RNA) [Compound U14A]”, the Activation folds was 1524 folds.

The same data set, now with this note: deoxyribonucleotide or 2′-F modification in stem-loop region.
As for “Pepper-3: base-modified Pepper, SEQ ID NO: 6, deoxyribonucleotides replacement in the stem-loop region (GGCCCCCAAUCGUGGCGUGUCGGCCUGCUUCGGCAGGCACUGGCGCCGGGGCC; deoxyribonucleotides at some stem-loop positions, underlined positions not recoverable, further chemistry not given here)”, the “fluorescence activation of III-3 by base-modified Pepper” value is “significantly activate the fluorescence of III-3 fluorophore”.

Consider “Pepper-4: base-modified Pepper, SEQ ID NO: 7, 2′-F modification in the stem-loop region (GGCCCCCCAAUCGUGGCGUGUCGGCCUGCUUCGGCAGGCACUGGCGCCGGGGGCC; 2'-fluoro at some stem-loop positions, underlined positions not recoverable, further chemistry not given here)”, for which the “fluorescence activation of III-3 by base-modified Pepper” value is “significantly activate the fluorescence of III-3 fluorophore”.

The nature of the next data set: Thermostability of Pepper (fluorescence after 5 minutes at different temperatures). Format: physicochemical. To be noted: 1 μM aptamer with 10 μM fluorophore (III-3 for F30-Pepper-1, DFHBI-1T for F30-Broccoli), 5 minutes at each temperature. On the procedure: In order to test the thermostability of Pepper, 10 μM III-3 was incubated with 1 μM F30-Pepper-1, and then was placed at different temperatures for 5 minutes before the fluorescence was determined. 10 μM DFHBI-1T was incubated with 1 μM F30-Broccoli to be as the control.
In the case of B1, the Tm was found to be 48 °C.

Another data set can be described thus: RNA extraction and purification with Mal-III-3 beads, in-gel fluorescence. The settings on record: gel incubated with 5 μM III-3 for 30 min. On the procedure:
In order to use Pepper for RNA extraction and purification, the pCDNA3.1 hygro(+)-TagBFP-4Pepper-7 and pCDNA3.1 hygro(+)-mCherry-4Pepper-7 plasmids in Example 12 were transfected into COS-7 cells, respectively. 24 hours after transfection, the cells were collected and the total RNA of the cells was extracted using the Easyp Super Total RNA Extraction Kit (Promega). The extracted total RNA was dissolved in buffer containing 40 mM HEPES, pH 7.4, 125 mM KCl, 5 mM MgCl2. The RNA was incubated at 70° C. for 10 min and placed at room temperature for more than 30 min.
500 μL activated Thiol Sepharose 4B (GE Healthcare) was washed twice with 500 μL PBS, and then was incubated with PBS containing 10 mM TCEP (Sigma) for 1 h at room temperature. After washing twice with 500 μL PBS, maleamide conjugated III-3 fluorophore (Mal-III-3) was added to react for 30 min at room temperature, and was washed three times with 500 μL PBS. The treated total RNA was incubated with the treated beads at room temperature. After 30 minutes, the mixture was centrifuged at 4000 rpm for 2 minutes, and the supernatant was discarded. […]
The recovered RNA was validated by electrophoresis. The gel was incubated with buffer containing 5 μM III-3 in 40 mM HEPES, pH 7.4, 125 mM KCl, and 5 mM MgCl2 for 30 min, and the fluorescence of 4Pepper-III-3 in the gel was detected.
For the molecule B2, the “in-gel fluorescence of recovered RNA” value was “bright Pepper-III-3 fluorescence signals”.
